Tests used:
[1] = system: IFN-γ knockout mice; test: In vivo infectivity of cryopreserved oocysts
Method: C. parvum oocysts at 2, 6 and 12 weeks of age were bleached (20%) and cryopreserved in the vitrification cassettes as described above using a two-step DMSO addition protocol with final concentration of 0.5 M trehalose/50% DMSO. Infectivity of cryopreserved oocysts was evaluated in 8-week-old female IFN-γ knockout mice bred under pathogen-free conditions (Jackson Laboratory, Bar Harbor, ME, USA). All mice experiments were conducted in an AAALAC accredited institution in compliance with the study protocol No. G2017-107 approved by the Tufts University Institutional Animal Care and Use Committee in accordance with the Guide for the Care and Use of Laboratory Animals (National Research Council). Mice were randomly assigned into groups of three by a blinded animal caretaker, however the investigators were not blinded during this experiment.
The animal care, inoculation and monitoring procedures were performed as described elsewhere (Jaskiewicz et al., Cryopreservation of infectious Cryptosporidium parvum oocysts. Nat. Commun. 9, 2883 (2018)), with modifications. Mice were immunosuppressed throughout the course of the experiment by administration of dexamethasone in drinking water at concentration 10 mg/L. Three days after immunosuppressive treatment started, each mouse received 30,000 PI^− cryopreserved oocysts in PBS suspension by oral gavage. […] Mice negative for signs of infection were monitored until 11 DPI. Intensity of fecal shedding was measured daily by inspection of the acid-fast stained fecal smear slides, prepared from a single fecal pellet of approximately equal size, for presence of oocysts in 30 fields (1000×).
The animal experiments which produced negative cryopreservation outcome were performed as described above with exception of few procedural details. A summary table describing the different cryopreservation methods evaluated and the corresponding outcome can be found in Table 1. […]

[2] = system: C. parvum oocysts; test: In vitro infectivity of oocysts in MDBK cells; format: cell-based, Cryptosporidium parvum
Method: All CPA cocktails described in FIG. 2A were further tested for infectivity in the in vitro model of epithelial cell infection using MDBK cells. Twenty thousand cells were seeded into each well of a 96-well culturing plate (Falcon) and maintained for two days to reach confluence (defined at 4×10^4/well). Oocysts were prepared for infection by bleaching and incubation with CPA cocktail as described above. After removal of diluted CPA in excess PBS, the oocyst pellet was resuspended in 50 μL of 0.75% sodium taurocholate (Sigma) and incubated at 37° C. for 15 min to prompt excystation. Pre-excysted oocysts were then added onto confluent cell monolayers at MOI 1:3. After 24-h co-incubation of parasite with cell monolayer, cultures were washed with PBS to remove extracellular stages of parasite, permeabilized with 100% methanol for 10 min at room temperature and then washed again with PBS. After fixation, cells were blocked with 10% FBS for 30 min and then incubated with fluorescein-labeled Vicia villosa lectin (Vector Laboratories) at concentration […] for 30 min to visualize intracellular stages of the parasite. After the final wash with PBS, monolayers were inspected with a Nikon ECLIPSE® Ti-E microscope (Nikon Instruments Inc.). Four images were taken of each well at 200× magnification using a FITC filter at 100 ms exposure. The number of fluorescing infection foci was then counted by ImageJ 1.48v particle analyzer using the following settings: triangle threshold 15-255, size exclusion at 10-1,000 pixel^2 and circularity at 0.1-1.0. Results depicted in FIG. 2B are expressed as percent infectivity of the control oocysts, which were treated with PBS in place of CPA.
(§1) Bleached (20%) C. parvum oocysts at 1-2, 6 and 12 weeks of age were cryopreserved as described above using a two-step DMSO addition protocol, such that final concentration of 0.5 M trehalose/50% DMSO was achieved. […] Pre-freeze and post-freeze oocyst viability was measured by PI exclusion at 10 μg/mL using flow cytometry and by an in vitro infectivity assay. […]

[3] = system: C. parvum oocysts; test: Oocyst viability by propidium iodide (PI) exclusion, flow cytometry; format: cell-based, Cryptosporidium parvum; settings: for viability (PI exclusion): pre-freeze, 50% DMSO, 20% bleach condition
Method: To increase the intracellular concentration of CPA, oocysts were bleached with various concentrations of bleach-5% or 20% and then incubated with CPA cocktails consisting of trehalose (Sigma) and DMSO (Sigma) at different concentrations. Briefly, bleached oocysts were first dehydrated in 1.6 M or 1 M trehalose solution for 10 min and then incubated for another 5-15 min with DMSO achieving its final concentration of 30% or 50% (ambient conditions were used throughout). The DMSO/trehalose cocktail was then diluted by incubation with excess PBS (at ratio 1:100) for 30 min at room temperature and removed by centrifugation (18,000×g, 2 min). Cytotoxicity attributable to the CPA cocktail was measured by inclusion of PI (Sigma) at 10 μg/mL using flow cytometry (ACCURI® C6, BD Life Sciences) and was normalized to its control in PBS for each condition.
In an effort to maximize the concentration of intracellular and extracellular CPA without compromising oocyst viability, oocysts were gradually exposed to higher concentrations of DMSO by two-step addition. Here, 6-week-old bleached oocysts (5% or 20%) were first dehydrated in 1.6 M trehalose for 10 min. DMSO was added to achieve 0.8 M trehalose/30% DMSO solution and incubated for 5 min. The second addition of DMSO led to a final concentration of 0.5 M trehalose/50% DMSO and was incubated for 1 min. CPA cocktail was then diluted as described above. Cytotoxicity attributable to CPA cocktail was measured by inclusion of PI and was normalized to the untreated oocyst control in PBS.
as §1
For evaluation of cryopreservation in insemination straws and cryovials, pre-freeze and post-freeze viability was measured only by PI exclusion as described above.

[4] = 30% DMSO 5 min then 50% DMSO 1 min, compared with one-step at same overall concentration

For `C[S+](C)[O-]` [DMSO, dimethyl sulfoxide], the “Infectivity in animals after thawing” value ([1]; Rectangular capillary, 2 weeks oocysts, trehalose 1.6M/0.8M, One-step 50% DMSO, 5 min, dose 10,000) was “No”, the “Infectivity in animals after thawing” value ([1]; Vitrification cassette, 2-12 weeks oocysts, trehalose 1.6M/0.5M, Two-step 30% DMSO/50% DMSO, 5 min/1 min, dose 30,000) was “Yes” and the “Infectivity in animals after thawing” value ([1]; Vitrification cassette, 6 weeks oocysts, trehalose 1.6M/0.8M, One-step 50% DMSO, 5 min, dose 10,000) was “No”. For the same compound, the “pre-freeze infectivity in vitro, two-step vs one-step DMSO addition” value [2, 4] was “significantly increased”, the in vitro infectivity ([2]; pre-freeze, 50% DMSO, 5 min incubation, 20% bleach condition, percent of control oocysts in PBS) was 38.7±17.0% and the “infectivity (in vitro)” value ([2]; pre-freeze, 50% DMSO, after 15 min or longer, 20% bleach condition) was 6.4±1.9%. For the same compound, the “pre-freeze viability, two-step vs one-step DMSO addition” value [3, 4] was “significantly increased”, the “viability (PI exclusion)” value ([3]; 5 min incubation) was 59.4±2.3% and the “viability (PI exclusion)” value ([3]; after 15 min or longer) was 17.5±5.0%.

Reference: patent US12692471B2, “High aspect ratio devices and methods for vitrification of biological samples by rapid cooling” (The General Hospital Corporation, priority 2020, dated 2026)
